# According to US5773236A, “Assay for glutathiane transferase using polyhaloaryl-substituted reporter molecules” (Molecule Probes, Inc., priority 1997, dated 1998):
# Structures can show the parent of a compound that is named as a salt.
# Key:
# [1] = test system: glutathione transferase (GST); assay: Reactivity with glutathione catalyzed by glutathione transferase, TLC (Example 50); format: biochemical
# Experimental: The suitability of Compound 1 (Example 1) and 5-(pentachlorobenzoylamino)fluorescein (Compound 48) as substrates for glutathione transferase (GST) in the presence of excess glutathione (GSH) is tested in vitro as follows: 5 mM GSH, 0.5 mM substrate (Compound 1 or Compound 48) and 20 micrograms GST (Sigma #G-6511, 70 units/mg) are combined in 0.1M phosphate buffer, pH 8.0, for 1 hour at 37° C. The reaction is terminated by spotting approximately 3 μL on silica gel TLC plates. The plate is developed using 1-butanol: methanol: water (3:1:1). […] Analysis of the reaction mixture by HPLC as in Example 52 confirms that the reaction product of Compound 1 with GSH is identical to the authentic Compound 1-GSH adduct as prepared in Example 45 (Compound 45).
# NIH-3T3 cells = assay: Hydrolysis of esterase substrates and product retention in live cells, flow cytometry (Example 65); format: cell-based
# Experimental: NIH-3T3 cells obtained from American Type Culture Collection Co., Rockville, Md. are used. They are grown in a humidified atmosphere of 5% CO2 in D-MEM supplemented with 10% bovine calf serum (BCS), 50 μg/mL gentamycin, 300 μg/mL L-glutamine and 10 mM HEPES, pH 7.4. Stock solutions of Compound 4 (Example 3), 10 mM in DMSO, and Compound 48 (Example 50), 5 mM in DMSO, are prepared. NIH-3T3 cells are trypsinized, washed with phosphate-buffered saline (PBS), pH 7.2 and resuspended in D-MEM with 10% BCS. To 1 mL of the cell suspension is added the dye stock solution to obtain a final dye concentration of 0.1 mM. Incubation is carried out at 37° C. for 30 minutes followed by incubation on ice for 30 minutes. Cells are centrifuged to form a pellet, the supernatant is discarded and the cells are washed twice with PBS, pH 7.2 and suspended in the same buffer. Cells are analyzed by flow cytometry using the Becton-Dickinson FACS Vantage flow cytometer. After analysis on the flow cytometer, cells are placed at 37° C. and analyzed by flow cytometry at frequent intervals over a period of 75 minutes. Cells stained with either of the dyes are at least 20-fold brighter than the autofluorescent control cells. Approximately 45% of Compound 4 and 35% of Compound 48 are still retained by the cells after 75 minutes of incubation at 37° C.
# alkaline phosphatase = assay: Detection of alkaline phosphatase on a membrane blot (Example 63); format: biochemical; conditions: nitrocellulose; for amount of enzyme detected, before washing: 35 minutes, 37° C., prior to washing the membranes
# Experimental: The reagents used are: 1) 5-(pentafluorobenzoylamino)fluorescein diphosphate, tetraammonium salt (Compound 47; Example 47), 10 mM in 0.1M Tris, pH 8.5; 2) fluorescein diphosphate (FDP; Molecular Probes, #F-2999), 10 mM in 0.1M Tris, pH 8.5; 3) BLOCKER Blotto in PBS (Pierce Chemical Company); 4) 0.2M glycine, pH 8.8; 5) 0.05M MgCl2, 6) 0.1M Tris, pH 8.5; 7) wash buffer: 20 mM Tris, 137 mM NaCl, 0.5% TWEEN 20, pH 7.5. Stock solutions of alkaline phosphatase are diluted in 0.1M Tris, pH 8.5 to obtain solutions with the following concentrations: 1 μg/μL, 0.5 μg/μL, 0.25 μg/μL, 0.1 μg/μL, 50 ng/μL, 10 ng/μL, 1 ng/μL and 0 ng/μL. 1 μL of each diluted solution is spotted on a nitrocellulose membrane (1"×1"), pore size 0.45 μM, and allowed to dry overnight at room temperature. Blocking is done by treating both nitrocellulose blots with 2 mL of supernatant liquid from the BLOCKER Blotto solution for 30 minutes at room temperature. The following mixture is prepared: 1.5 mL of 0.2M glycine, pH 8.8+0.4 mL of 0.05M MgCl2 +100 μL of 0.1M Tris, pH 8.5+10 μL of 10 mM substrate stock solution (either PFB-FDP or FDP). Blotto supernatant on the blots is replaced with the above mixture and incubation is carried out for 35 minutes at 37° C. A Polaroid image of the blots is obtained by illuminating with reflected UV light at 254 nm. Exposure time is 5-10 sec with an aperture setting of F=4.5 and filter #15 is used to block unwanted light. Both Compound 47 and FDP can detect ~50 ng of the enzyme prior to washing the membranes. The blots are washed twice for 5 minutes each time with 2 mL of wash buffer and an image is obtained using the same settings and exposure times as described above.
# CRE BAG 2 cells [2] = assay: Marker gene expression by flow cytometry, CRE BAG 2 (Example 62); format: cell-based; conditions: 0.2 mM dye, 37° C., 30 minutes
# Experimental: NIH-3T3 and CRE BAG2 cells are maintained as in Example 61. A 10 mM stock solution of (((3 -(2-pentafluorobenzoyl)amino)ethyl)amino)carbonyl)-umbelliferyl β-D-galactopyranoside (Compound 37; Example 37) is prepared in DMF. A 10 mM stock solution of 4-chloromethylcoumarin β-D-galactopyranoside (CMCG; Molecular Probes #D-2921) is prepared in a 1:1 mixture of DMSO and water. NIH-3T3 and CRE BAG2 cells are trypsinized, washed with phosphate buffered saline (PBS), pH 7.2 and resuspended in D-MEM with 10% BCS. To separate 1 mL cell suspensions are added the dye stock solutions to obtain final concentrations of 0.2 mM dye. Incubation is carried out at 37° C. for 30 minutes. Cells are centrifuged to form a pellet, the supernatant is discarded and the cells are washed twice with PBS, pH 7.2 and suspended in the same buffer. Cells are analyzed by flow cytometry using a Becton-Dickinson FACS Vantage flow cytometer. […] However, CRE BAG 2 cells stained with the Compound 37 show fluorescence that is greater than 25-fold that shown by autofluorescent control cells. For the CRE BAG 2 cells stained with CMCG, the fluorescence intensity is only 8-fold greater than that of the autofluorescent control cells.
# [3] = test system: Bovine pulmonary aorta endothelial cells (BPAEC); assay: Glutathione adduct formation and fate of substrate in cultured animal cells, HPLC (Example 66); format: cell-based
# Experimental: The solutions are mixed overnight with three volumes of ethyl acetate followed by centrifugation at 15,000×g for 30 min to separate the organic and aqueous layers. HPLC analysis using a Rainin HPLC equipped with a C18, 5 μm, 100 Å, 4.6×250 mm MICROSORB-MV reverse phase column. […] Products are detected by reading the absorbance at 500 nm.
# Bovine pulmonary aorta endothelial cells (BPAEC) are removed from flasks by trypsinization and washed into fresh complete growth medium to yield 10^6 cells/mL. […] Other aliquots of the cell suspension are loaded with the same substrates for 1 hour, rinsed into fresh complete medium, then incubated in the absence of substrate for an additional 3 hr at 37° C. to look for retention and efflux of fluorescent products. At the end of each incubation period the cells are removed by centrifugation and the supernate is retained. The cell pellets are resuspended in 1 mL of E-Pure water and subjected to three freeze-thaw cycles (-80° C. to 37° C.).
# [4] = test system: Bovine pulmonary aorta endothelial cells (BPAEC); assay: Retention of fluorescence in fixed cells (Example 66); format: cell-based; conditions: 3.7% formaldehyde 30 minutes, 0.2% Triton X-100 30 minutes
# CRE BAG 2 cells [5] = assay: Peptidase substrates in live cells, fluorescence microscopy (Example 59); format: cell-based; conditions: 1 μM, 0.5 μM or 0.1 μM, 37° C., 30 minutes
# Experimental: CRE BAG 2 cells obtained from American Type Culture Collection Co., Rockville, Md. are used. They are grown in a humidified atmosphere of 5% CO2 in D-MEM supplemented with 10% calf serum, 50 μg/mL gentamycin, 300 μg/mL L-glutamine and 10 mM HEPES, pH 7.4. 1 mM stock solutions of Compound 13-Leu (Example 13) and Compound 13-Arg substrate are prepared in DMSO. CRE BAG 2 cells are trypsinized, washed with phosphate-buffered saline, pH 7.2 and resuspended in 1 mL of the same buffer. 1 μL, 0.5 μL or 0.1 μL of the stock reagents is added to 1 mL of the cell suspension to obtain a final concentration of 1 μM, 0.5 μM or 0.1 μM. Incubation is carried out at 37° C. for 30 minutes. Cells are centrifuged to form a pellet, the supernatant is discarded and the cells are washed with PBS, pH 7.2 and suspended in the same buffer. Cells are mounted on slides and observed by fluorescence microscopy using filters optimized for fluorescein.
# [6] = 15 min, 5 μM substrate, continuous
# [7] = 1 hr, washed, then additional 3 hr at 37° C.
# [8] = 4 hrs, 5 μM substrate, continuous
smiles,measurement,setting,value
"O=C1OC2(c3ccc(O)cc3Oc3cc(O)ccc32)c2ccc(NC(=O)c3c(Cl)c(Cl)c(Cl)c(Cl)c3Cl)cc21 [Compound 48, 5-(pentachlorobenzoylamino)fluorescein]",adduct formation with glutathione in presence of GST,"[1]; 5 mM GSH, 0.5 mM substrate, 20 micrograms GST, pH 8.0, 1 hour, 37° C.",does not form a new adduct
same,reaction in control without GST,[1]; GST omitted,very low or no reaction
same,brightness versus autofluorescent control cells,"NIH-3T3 cells; 0.1 mM dye, 37° C., 30 minutes then on ice 30 minutes",at least 20 fold
same,dye retained by the cells,NIH-3T3 cells; after 75 minutes of incubation at 37° C.,~35%
"O=C1OC2(c3ccc(OP(=O)(O)O)cc3Oc3cc(OP(=O)(O)O)ccc32)c2ccccc21 [FDP, fluorescein diphosphate, reference compound]","amount of enzyme detected, before washing",alkaline phosphatase,~ 50 ng
same,detection of enzyme after washing,alkaline phosphatase; washed twice for 5 minutes,unable to detect the presence of any enzyme
"O=C1OC2(c3ccc(OP(=O)(O)O)cc3Oc3cc(OP(=O)(O)O)ccc32)c2ccc(NC(=O)c3c(F)c(F)c(F)c(F)c3F)cc21 [Compound 47, 5-(pentafluorobenzoylamino)fluorescein diphosphate, tetraammonium salt]","amount of enzyme detected, before washing",alkaline phosphatase,~ 50 ng
same,"amount of enzyme detected, after washing","alkaline phosphatase; washed twice for 5 minutes, per spot",~ 50 ng
"O=c1cc(CCl)c2ccc(O[C@@H]3O[C@H](CO)[C@H](O)[C@H](O)[C@H]3O)cc2o1 [CMCG, 4-chloromethylcoumarin β-D-galactopyranoside, reference compound]",fluorescence relative to autofluorescent control cells,CRE BAG 2 cells [2],8 fold
"CC(=O)Oc1ccc2c(c1)Oc1cc(OC(C)=O)ccc1C21OC(=O)c2cc(NC(=O)c3ccccc3)ccc21 [Compound 5, 5-(benzoylamino)fluorescein diacetate]",GSH adduct formation in cells,"[3]; 5 μM substrate, 37° C., HPLC",does not
same,EXTRACELLULAR Free dye,[3]; [6],4829 relative fluorescence units
same,"EXTRACELLULAR Free dye, fraction of total fluorescence",[3]; [6],91.5%
same,INTRACELLULAR Free dye,[3]; [6],450 relative fluorescence units
same,"INTRACELLULAR Free dye, fraction of total fluorescence",[3]; [6],8.5%
same,EXTRACELLULAR Free dye,[3]; [7],469 relative fluorescence units
same,"EXTRACELLULAR Free dye, fraction of total fluorescence",[3]; [7],100%
same,EXTRACELLULAR Free dye,[3]; [8],8627 relative fluorescence units
same,"EXTRACELLULAR Free dye, fraction of total fluorescence",[3]; [8],99.1%
same,INTRACELLULAR Free dye,[3]; [8],78 relative fluorescence units
same,"INTRACELLULAR Free dye, fraction of total fluorescence",[3]; [8],0.9%
same,hydrolysis product detectable in washed cells,[3]; washed at one hour then incubated additional 3 hours,not detectable
same,fluorescence after fixation and permeabilization,[4],essentially nonfluorescent
"CC(C)C[C@H](N)C(=O)Nc1ccc2c(c1)Oc1cc(NC(=O)c3c(F)c(F)c(F)c(F)c3F)ccc1C21OC(=O)c2ccccc21 (stereo partly drawn) [Compound 13-Leu, Rhodamine 110, pentafluorobenzoyl amide, L-leucine amide, hydrochloride]","staining of cells, fluorescence microscopy",CRE BAG 2 cells [5],punctate green fluorescence associated with organelles
